Assays:
A549 cell line = assay: Cytotoxicity, MTT assay, A549 cells; conditions: Homo sapiens, A549, 24 h, read-out: % Cytotoxicity A549 (100 μΜ)
Procedure: (§1) The determination of the cell viability of HaCaT cells and the cell toxicity of A549 and A375 cell lines was performed according to Myriagkou et al. [57], via the MTT (3-(4,5-dimethylthiazol-2-yl)-2,5-diphenyltetrazolium bromide) assay. In a 96-well plate, cells were seeded at specific concentrations (30 × 10^4 cells/mL for HaCaT cells and 20 × 10^4 cells/mL for A549 and A375 cells) and incubated (37 °C, 5% CO2) for 24 h. Following this first incubation period, solutions of the tested compounds at various concentrations were added to the cells, and the plates were incubated for an additional 24 h. Upon the second incubation period, the appropriate volume of MTT solution (1 mg/mL in PBS, filtrated through a 0.22-μm filter) was added to each well, and the plate was incubated for 4 h, during which formazan crystals were formed. The crystals were dissolved by addition of 100 μL od DMSO in each cell and after 30 min of stirring, the absorbance was recorded at 450 nm using a microplate reader. All tests were undertaken on three replicates and compared to the control (untreated cells), the blank (medium), and the reference control (cells treated with 100 μM silibinin).
(§2) The cytotoxicity of the novel compounds was also measured via the mehtylthiazol tetrazolium (MTT) assay.

[1] = Cell viability, MTT assay, HaCaT cells; conditions: human
Procedure: as §1, §2

[2] = Inhibition of linoleic acid peroxidation induced by AAPH radical; conditions: 100 μM, 37 °C, pH 7.4
Procedure: The in vitro assays were performed at a concentration of 100 µM (a 10 mM stock solution in DMSO was used, from which several dilutions were made for the determination of IC50 values), at least in triplicate, and the standard deviation of absorbance was less than 10% of the mean. The compounds were diluted in 0.1% DMSO under sonification in an appropriate buffer in several dilutions. Statistical comparisons were made using Student’s t-test. A statistically significant difference was defined as p < 0.05. The results were compared to the corresponding reference compounds.
The determination of the ability of the synthesized compounds to inhibit linoleic acid peroxidation induced by the radical initiator 2,2-Azobis(2-amidinopropane) dihydrochloride (AAPH) was performed according to Hadjipavlou-Litina et al.. Ten microliters of the 16 mM sodium linoleate solution were added to the UV cuvette containing 0.93 mL of a 0.05 M phosphate buffer, pH 7.4, pre-thermostated at 37 °C. The oxidation reaction was initiated at 37 °C under air by the addition of 50 µL of a 40 mM AAPH solution, which was used as a free radical initiator. Oxidation was carried out in the presence of aliquots (10 µL) in the assay without antioxidants and monitored at 234 nm. Lipid oxidation was recorded in the presence of the same level of DMSO served as a negative control. results are compared to the appropriate standard compound Trolox.
In an attempt to assess the in vitro antioxidant potential of the synthesized compounds, their inhibitory activity against lipid peroxidation of linoleic acid sodium salt was examined, induced by AAPH radical under atmospheric oxygen at 37 °C. The anti-lipid peroxidation was recorded with UV spectrophotometrically. The assay is a quick and widely used method for the assessment of antioxidant activity.

A375 cell line = assay: Cytotoxicity, MTT assay, A375 cells; conditions: Homo sapiens, A-375, 24 h, read-out: % Cytotoxicity A375 (100 μΜ)
Procedure: as §1, §2

[3] = molecular target: T1, soybean lipoxygenase (LOX) (Glycine max, UniProt P08170); assay: Soybean LOX inhibition in vitro; type: biochemical; conditions: for IC50: sodium linoleate substrate; for inhibition at 100 µM: 100 μM (0.1 mM), read-out: Inhibition of LOX (% at 100 μΜ)
T1 sequence (P08170 1-839): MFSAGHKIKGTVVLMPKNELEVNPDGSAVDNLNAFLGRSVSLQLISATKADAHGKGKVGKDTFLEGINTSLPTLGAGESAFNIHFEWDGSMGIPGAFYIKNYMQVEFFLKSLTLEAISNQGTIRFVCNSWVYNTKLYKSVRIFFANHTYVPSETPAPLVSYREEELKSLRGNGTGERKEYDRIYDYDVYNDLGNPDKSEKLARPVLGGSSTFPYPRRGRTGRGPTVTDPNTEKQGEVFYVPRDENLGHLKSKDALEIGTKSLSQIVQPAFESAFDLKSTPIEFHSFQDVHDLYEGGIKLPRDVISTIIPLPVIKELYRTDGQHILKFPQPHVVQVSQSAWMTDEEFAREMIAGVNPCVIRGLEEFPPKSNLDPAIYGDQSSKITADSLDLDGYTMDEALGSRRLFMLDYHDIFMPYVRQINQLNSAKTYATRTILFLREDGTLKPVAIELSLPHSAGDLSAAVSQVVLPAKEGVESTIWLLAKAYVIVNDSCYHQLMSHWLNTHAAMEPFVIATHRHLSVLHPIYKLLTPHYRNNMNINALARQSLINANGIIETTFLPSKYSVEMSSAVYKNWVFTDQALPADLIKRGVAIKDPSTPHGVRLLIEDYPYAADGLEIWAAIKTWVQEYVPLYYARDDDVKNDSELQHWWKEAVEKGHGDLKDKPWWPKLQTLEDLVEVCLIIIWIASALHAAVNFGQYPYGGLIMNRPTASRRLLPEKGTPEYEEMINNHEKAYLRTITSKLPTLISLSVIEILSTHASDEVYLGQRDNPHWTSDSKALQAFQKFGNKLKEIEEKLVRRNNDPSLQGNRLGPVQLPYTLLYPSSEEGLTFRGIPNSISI
Procedure: The compounds were diluted in 0.1% DMSO under sonification in an appropriate buffer in several dilutions. Statistical comparisons were made using Student’s t-test. A statistically significant difference was defined as p < 0.05.
The determination of the inhibition of soybean LOX for the synthesized compounds was performed according to Hadjipavlou-Litina et al.. The tested compounds were incubated at room temperature with sodium linoleate (0.1 mM) and 0.2 mL of enzyme solution (1/9 × 10^−4 w/v in saline). The method was based on the conversion of sodium linoleate to 13-hydroperoxylinoleic acid at 234 nm. In order to determine the […] values, different concentrations were used.
As evidence of anti-inflammatory activity, the quinolinone derivatives were examined for their ability to inhibit soybean lipoxygenase (LOX). LOX catalyzes the cleavage of arachidonic acid to leukotrienes that are found to play a crucial role in the pathogenesis of some inflammatory diseases.

in vitro = conditions: human
Procedure: as §1, §2

Row | Structure (SMILES) | IC50 [3] | cytotoxicity at 100 µM (A549 cell line) | viability at 24 h, 100 µM [1] | Inhibition of Linoleic Acid Peroxidation (% at 100 μΜ) [2] | cytotoxicity at 100 µM (A375 cell line) | viability at 24 h, 100 µM (in vitro) | inhibition at 100 µM [3]
1 | C#CCNC(=O)c1c(O)c2ccccc2n(C)c1=O [4a, 4-hydroxy-1-methyl-2-oxo-N-(prop-2-yn-1-yl)-1,2-dihydroquinoline-3-carboxamide] | – | 0% | 61.5% | 42.7% | 7% | – | –
2 | C#CCNC(=O)c1c(O)c2ccccc2n(Cc2ccccc2)c1=O [4b, 1-benzyl-4-hydroxy-2-oxo-N-(prop-2-yn-1-yl)-1,2-dihydroquinoline-3-carboxamide] | 43.2 µM | 45.7% | 88.7% | 14.7% | 7.6% | – | –
3 | C#CCNC(=O)c1c(O)c2ccccc2n(CC)c1=O [4c, 1-ethyl-4-hydroxy-2-oxo-N-(prop-2-yn-1-yl)-1,2-dihydroquinoline-3-carboxamide] | 22.5 µM | 16.4% | 90.5% | 100% | 0.2% | – | –
4 | C#CCNC(=O)c1c(O)c2ccccc2n(CCCCCCCC)c1=O [4e, 4-hydroxy-1-octyl-2-oxo-N-(prop-2-yn-1-yl)-1,2-dihydroquinoline-3-carboxamide] | 48.3 µM | 33.7% | 76.2% | 34.9% | 22.6% | – | –
5 | C#CCNC(=O)c1c(O)c2ccccc2n(CCCc2ccccc2)c1=O [4f, 4-hydroxy-2-oxo-1-(3-phenylpropyl)-N-(prop-2-yn-1-yl)-1,2-dihydroquinoline-3-carboxamide] | – | 0% | – | 81.1% | 0% | 76.9% | 49.3%
6 | C#CCNC(=O)c1c(O)c2ccccc2n(CC=Cc2ccccc2)c1=O [4g, 1-cinnamyl-4-hydroxy-2-oxo-N-(prop-2-yn-1-yl)-1,2-dihydroquinoline-3-carboxamide] | 51.2 µM | 35.2% | 100% | 27.6% | 11.7% | – | –
7 | O=C(NCc1cn(Cc2ccccc2)nn1)c1c(O)c2ccccc2n(Cc2ccccc2)c1=O [5b, 1-benzyl-N-((1-benzyl-1H-1,2,3-triazol-4-yl)methyl)-4-hydroxy-2-oxo-1,2-dihydroquinoline-3-carboxamide] | 46 µM | 49.9% | 86.5% | 89.0% | 0% | – | –
8 | O=C(NCc1cn(Cc2ccccc2)nn1)c1c(O)c2ccccc2n(CCCc2ccccc2)c1=O [5f, N-((1-benzyl-1H-1,2,3-triazol-4-yl)methyl)-4-hydroxy-2-oxo-1-(3-phenylpropyl)-1,2-dihydroquinoline-3-carboxamide] | 50 µM | 12.5% | 100% | 98.0% | 23.7% | – | –
9 | CC(C)=CCn1cc(CNC(=O)c2c(O)c3ccccc3n(CC=Cc3ccccc3)c2=O)nn1 [5h, 1-cinnamyl-4-hydroxy-N-((1-(3-methylbut-2-en-1-yl)-1H-1,2,3-triazol-4-yl)methyl)-2-oxo-1,2-dihydroquinoline-3-carboxamide] | – | 0% | 98.9% | 18.7% | 0% | – | 44.5%
10 | CC(C)=CCn1cc(CNC(=O)c2c(O)c3ccccc3n(Cc3ccccc3)c2=O)nn1 [5j, 1-benzyl-4-hydroxy-N-((1-(3-methylbut-2-en-1-yl)-1H-1,2,3-triazol-4-yl)methyl)-2-oxo-1,2-dihydroquinoline-3-carboxamide] | 41 µM | 18.8% | 100% | 92.0% | 0% | – | –
11 | COc1cc(C2Oc3cc([C@H]4Oc5cc(O)cc(O)c5C(=O)[C@@H]4O)ccc3OC2CO)ccc1O (some centres unmarked) [Silibinin, silibinin, reference compound] | – | 57.4% | 47.2% | – | 12.6% | – | –
12 | Cc1c(C)c2c(c(C)c1O)CCC(C)(C(=O)O)O2 (centres unmarked) [Trolox, reference compound] | – | – | – | 88.0% | – | – | –

Continued, in another order:

Row | IC50 [3] | Structure (SMILES) | cytotoxicity at 100 µM (A549 cell line) | viability at 24 h, 100 µM [1] | Inhibition of Linoleic Acid Peroxidation (% at 100 μΜ) [2] | cytotoxicity at 100 µM (A375 cell line) | viability at 24 h, 100 µM (in vitro) | inhibition at 100 µM [3]
13 | 10 µM | Cn1c(=O)c(C(=O)NCc2cn(Cc3ccccc3)nn2)c(O)c2ccccc21 [5a, N-((1-benzyl-1H-1,2,3-triazol-4-yl)methyl)-4-hydroxy-1-methyl-2-oxo-1,2-dihydroquinoline-3-carboxamide] | 24.2% | 100% | 98.0% | 0% | – | –
14 | 51.5 µM | CCn1c(=O)c(C(=O)NCc2cn(Cc3ccccc3)nn2)c(O)c2ccccc21 [5c, N-((1-benzyl-1H-1,2,3-triazol-4-yl)methyl)-1-ethyl-4-hydroxy-2-oxo-1,2-dihydroquinoline-3-carboxamide] | 0% | 100% | 94.0% | 0% | – | –
15 | 47.5 µM | CCn1c(=O)c(C(=O)NCc2cn(CCCc3ccccc3)nn2)c(O)c2ccccc21 [5d, 1-ethyl-4-hydroxy-2-oxo-N-((1-(3-phenylpropyl)-1H-1,2,3-triazol-4-yl)methyl)-1,2-dihydroquinoline-3-carboxamide] | 28.9% | 99.6% | 92.0% | 10.5% | – | –
16 | 45 µM | CCn1c(=O)c(C(=O)NCc2cn(C/C=C/c3ccccc3)nn2)c(O)c2ccccc21 [5e, (E)-N-((1-cinnamyl-1H-1,2,3-triazol-4-yl)methyl)-1-ethyl-4-hydroxy-2-oxo-1,2-dihydroquinoline-3-carboxamide] | 7.3% | 27.6% | 91.0% | 35.2% | – | –
17 | 75 µM | CC(C)=CCn1c(=O)c(C(=O)NCc2cn(Cc3ccccc3)nn2)c(O)c2ccccc21 [5g, N-((1-benzyl-1H-1,2,3-triazol-4-yl)methyl)-4-hydroxy-1-(3-methylbut-2-en-1-yl)-2-oxo-1,2-dihydroquinoline-3-carboxamide] | 13.4% | 100% | 83.0% | 46.8% | – | –
18 | 70 µM | CCn1c(=O)c(C(=O)NCc2cn(CC=C(C)C)nn2)c(O)c2ccccc21 [5i, 1-ethyl-4-hydroxy-N-((1-(3-methylbut-2-en-1-yl)-1H-1,2,3-triazol-4-yl)methyl)-2-oxo-1,2-dihydroquinoline-3-carboxamide] | – | – | 96.0% | – | – | –

Source: publication PMC12839112, “Synthesis and Bioactivity Assessment of Novel Quinolinone–Triazole Hybrids” (Biomolecules, 2025)
